Assay results taken from patent US20120003270A1, “6-SUBSTITUTED ISOFLAVONOID COMPOUNDS AND USES THEREOF” (priority 2008, published 2012).

What was measured:
aortic ring = test: Rat aortic ring assay (contraction to noradrenaline); settings: 1 μg/ml, p=0.045, read-out: Inhibition of the contractile response (logEC50) to noradrenaline compared with vehicle alone
Experimental: Male Sprague-Dawley rats (250±50 g) were euthanased with 80% CO2 and 20% O2. The thoracic aorta was excised and quickly mounted in organ-baths as described (Chin-Dusting et al. 2001). Full concentration-contractile curves were obtained to noradrenaline (0.1 nM-10 mM) with and without test compounds delivered at a concentration of 1 μg/ml. Experiments were repeated in n=5 different rings from 5 different animals. Only one compound at any one concentration was tested on any one ring from any one animal. Sigmoidal dose response curves were fitted for the data and the logEC50 calculated (Prism 4, GraphPad Software). The difference in these values between the presence and absence of test compound was calculated using a two-tailed paired t test. The effects of β-oestrodiol and vehicle alone were examined as a positive and negative control respectively.

[1] = Interaction with Cu(II) (UV/Vis absorption spectra); type: physicochemical; settings: 25 μM compound + 25 μM CuSO4, 1:1 molar ratio, pH 7.2
Experimental: The non-specific binding of compound (1) to Cu^++ was also examined in duplicate on different days. A stock solution of test compounds was prepared in DMSO at a concentration of 5 mM. The UV/Vis absorption spectra of was then determined between 200 and 800 nm after dilution of test compounds to 25 μM in phosphate buffer (10 mM, pH 7.2, chelex treated). Interactions of the compounds with Cu(II) were determined by scanning a second overlaying absorption spectrum over 200 to 800 nm, in which 25 μM CuSO4 solution was added to a fresh 25 μM solution of test compounds and mixed for 20 seconds.

Compound: CN(C)Cc1cc2c(cc1O)OCC(c1ccc(O)cc1)=C2 [Compound (1)]
- inhibition at 1 µg/mL (aortic ring): 23%
- Interaction with Cu^2+ [1]: did not interact with Cu^2+
